Results reported in ChEMBL document CHEMBL5120815, “Synthesis of novel dual target inhibitors of PARP and EGFR and their antitumor activities in triple negative breast cancers” (Bioorg Med Chem, 2022).
The source made the active and inactive calls. The rule behind the calls is not given here.

Key:
[1] = tested on: MX1; test: Cytotoxicity against human MX1 cells harbouring BRCA1 mutant assessed as inhibition of cell growth incubated for 48 hrs by MTT assay; type: functional, cell-based; conditions: MX1, 48 h
[2] = tested on: SK-BR-3; test: Cytotoxicity against human SK-BR-3 cells harbouring wild type BRCA1/2 assessed as inhibition of cell growth incubated for 48 hrs by MTT assay; type: functional, cell-based; conditions: SK-BR-3, 48 h
[3] = tested on: MDA-MB-231; test: Cytotoxicity against human MDA-MB-231 cells assessed as inhibition of cell growth incubated for 48 hrs by MTT assay; type: functional, cell-based; conditions: MDA-MB-231, 48 h
[4] = tested on: MCF7; test: Potentiation of adriamycin-induced cytotoxicity in human MCF7 cells harbouring wild type BRCA1/2 assessed as inhibition of cell growth at 25 uM incubated for 48 hrs in presence of 0.8 uM adriamycin by MTT assay relative to control; type: functional
[5] = tested on: MCF7; test: Synergistic cytotoxicity against human MCF7 cells harbouring wild type BRCA1/2 assessed as combination index at 25 uM incubated for 48 hrs in presence of 0.8 uM adriamycin by MTT assay; type: functional
[6] = tested on: MCF7; test: Cytotoxicity against human MCF7 cells harbouring wild type BRCA1/2 assessed as inhibition of cell growth incubated for 48 hrs by MTT assay; type: functional, cell-based; conditions: MCF7, 48 h
[7] = tested on: HCC1937; test: Cytotoxicity against human HCC1937 cells assessed as inhibition of cell growth incubated for 48 hrs by MTT assay; type: functional, cell-based; conditions: HCC1937, 48 h
[8] = tested on: MCF7; test: Cytotoxicity against human MCF7 cells harbouring wild type BRCA1/2 assessed as inhibition of cell growth at 25 uM incubated for 48 hrs by MTT assay relative to control; type: functional
[9] = tested on: MDA-MB-468; test: Cytotoxicity against human MDA-MB-468 cells assessed as inhibition of cell growth incubated for 48 hrs by MTT assay; type: functional, cell-based; conditions: MDA-MB-468, 48 h
[10] = tested on: MCF7; test: Potentiation of adriamycin-induced cytotoxicity in human MCF7 cells harbouring wild type BRCA1/2 assessed as inhibition of cell growth at 17.5 uM incubated for 48 hrs in presence of 0.8 uM adriamycin by MTT assay relative to control; type: functional
[11] = tested on: MCF7; test: Synergistic cytotoxicity against human MCF7 cells harbouring wild type BRCA1/2 assessed as combination index at 17.5 uM incubated for 48 hrs in presence of 0.8 uM adriamycin by MTT assay; type: functional
[12] = tested on: MCF7; test: Cytotoxicity against human MCF7 cells harbouring wild type BRCA1/2 assessed as inhibition of cell growth at 17.5 uM incubated for 48 hrs by MTT assay relative to control; type: functional
[13] = tested on: MCF7; test: Synergistic cytotoxicity against human MCF7 cells harbouring wild type BRCA1/2 assessed as combination index at 10 uM incubated for 48 hrs in presence of 0.8 uM adriamycin by MTT assay; type: functional
[14] = tested on: MCF7; test: Potentiation of adriamycin-induced cytotoxicity in human MCF7 cells harbouring wild type BRCA1/2 assessed as inhibition of cell growth at 10 uM incubated for 48 hrs in presence of 0.8 uM adriamycin by MTT assay relative to control; type: functional
[15] = tested on: MCF7; test: Cytotoxicity against human MCF7 cells harbouring wild type BRCA1/2 assessed as inhibition of cell growth at 10 uM incubated for 48 hrs by MTT assay relative to control; type: functional
[16] = target: Epidermal growth factor receptor (Homo sapiens) (UniProt P00533); test: Inhibition of human EGFR in human HCC1937 cells assessed as reduction in phosphorylated EGFR level at 10 uM incubated for 48 hrs by Western blot analysis; type: cell-based
[17] = target: Poly [ADP-ribose] polymerase 1 (Homo sapiens) (UniProt P09874); test: Inhibition of PARP-1 in human MCF7 cells assessed as inhibition of PARylation by measuring reduction in PARP protein expression at 1 uM pretreated with adriamycin followed by compound addition and measured after 48 hrs by Western bot analysis; type: cell-based
[18] = target: Epidermal growth factor receptor (Homo sapiens) (UniProt P00533); test: Inhibition of human EGFR in human HCC1937 cells assessed as reduction in EGFR level at 10 uM incubated for 48 hrs by Western blot analysis; type: cell-based
[19] = target: Poly [ADP-ribose] polymerase 1 (Homo sapiens) (UniProt P09874); test: Inhibition of PARP-1 (unknown origin) at 0.1 uM preincubated for 10 mins followed by PARP cocktail addition and measured after 60 mins by colorimetric assay relative to control; conditions: time 70.0 min

Epidermal growth factor receptor (Homo sapiens), sequence (P00533 whole entry): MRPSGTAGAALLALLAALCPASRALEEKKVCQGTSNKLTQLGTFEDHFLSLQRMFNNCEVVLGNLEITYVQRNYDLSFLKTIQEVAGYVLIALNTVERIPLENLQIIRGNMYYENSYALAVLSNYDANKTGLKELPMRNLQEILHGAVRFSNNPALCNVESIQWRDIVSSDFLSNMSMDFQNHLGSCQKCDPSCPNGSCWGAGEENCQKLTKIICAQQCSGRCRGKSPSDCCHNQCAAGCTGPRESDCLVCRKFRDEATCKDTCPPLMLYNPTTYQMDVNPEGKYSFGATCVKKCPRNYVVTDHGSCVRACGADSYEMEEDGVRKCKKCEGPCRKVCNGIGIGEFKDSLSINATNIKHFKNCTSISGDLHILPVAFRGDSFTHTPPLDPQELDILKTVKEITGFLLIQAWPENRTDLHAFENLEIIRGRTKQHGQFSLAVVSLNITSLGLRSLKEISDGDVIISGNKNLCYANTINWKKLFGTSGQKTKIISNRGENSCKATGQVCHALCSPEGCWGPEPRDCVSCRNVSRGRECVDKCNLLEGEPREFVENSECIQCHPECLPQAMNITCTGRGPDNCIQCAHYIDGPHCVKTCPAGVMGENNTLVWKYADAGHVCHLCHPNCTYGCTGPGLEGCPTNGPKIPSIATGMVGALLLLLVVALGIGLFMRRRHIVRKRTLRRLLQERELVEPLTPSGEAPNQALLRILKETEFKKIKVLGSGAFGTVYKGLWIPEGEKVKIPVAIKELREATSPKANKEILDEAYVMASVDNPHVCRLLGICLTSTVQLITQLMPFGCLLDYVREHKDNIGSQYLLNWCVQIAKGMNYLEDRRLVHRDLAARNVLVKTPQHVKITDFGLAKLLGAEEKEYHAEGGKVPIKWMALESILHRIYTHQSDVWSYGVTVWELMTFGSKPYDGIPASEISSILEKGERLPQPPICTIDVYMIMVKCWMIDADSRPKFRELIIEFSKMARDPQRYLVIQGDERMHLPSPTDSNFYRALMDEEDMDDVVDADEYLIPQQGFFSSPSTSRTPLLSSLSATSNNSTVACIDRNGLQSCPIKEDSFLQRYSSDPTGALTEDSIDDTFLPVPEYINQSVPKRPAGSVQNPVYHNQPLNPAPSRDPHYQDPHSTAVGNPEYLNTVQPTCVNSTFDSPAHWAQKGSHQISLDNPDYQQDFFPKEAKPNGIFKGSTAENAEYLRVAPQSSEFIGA
Poly [ADP-ribose] polymerase 1 (Homo sapiens), sequence (P09874 whole entry): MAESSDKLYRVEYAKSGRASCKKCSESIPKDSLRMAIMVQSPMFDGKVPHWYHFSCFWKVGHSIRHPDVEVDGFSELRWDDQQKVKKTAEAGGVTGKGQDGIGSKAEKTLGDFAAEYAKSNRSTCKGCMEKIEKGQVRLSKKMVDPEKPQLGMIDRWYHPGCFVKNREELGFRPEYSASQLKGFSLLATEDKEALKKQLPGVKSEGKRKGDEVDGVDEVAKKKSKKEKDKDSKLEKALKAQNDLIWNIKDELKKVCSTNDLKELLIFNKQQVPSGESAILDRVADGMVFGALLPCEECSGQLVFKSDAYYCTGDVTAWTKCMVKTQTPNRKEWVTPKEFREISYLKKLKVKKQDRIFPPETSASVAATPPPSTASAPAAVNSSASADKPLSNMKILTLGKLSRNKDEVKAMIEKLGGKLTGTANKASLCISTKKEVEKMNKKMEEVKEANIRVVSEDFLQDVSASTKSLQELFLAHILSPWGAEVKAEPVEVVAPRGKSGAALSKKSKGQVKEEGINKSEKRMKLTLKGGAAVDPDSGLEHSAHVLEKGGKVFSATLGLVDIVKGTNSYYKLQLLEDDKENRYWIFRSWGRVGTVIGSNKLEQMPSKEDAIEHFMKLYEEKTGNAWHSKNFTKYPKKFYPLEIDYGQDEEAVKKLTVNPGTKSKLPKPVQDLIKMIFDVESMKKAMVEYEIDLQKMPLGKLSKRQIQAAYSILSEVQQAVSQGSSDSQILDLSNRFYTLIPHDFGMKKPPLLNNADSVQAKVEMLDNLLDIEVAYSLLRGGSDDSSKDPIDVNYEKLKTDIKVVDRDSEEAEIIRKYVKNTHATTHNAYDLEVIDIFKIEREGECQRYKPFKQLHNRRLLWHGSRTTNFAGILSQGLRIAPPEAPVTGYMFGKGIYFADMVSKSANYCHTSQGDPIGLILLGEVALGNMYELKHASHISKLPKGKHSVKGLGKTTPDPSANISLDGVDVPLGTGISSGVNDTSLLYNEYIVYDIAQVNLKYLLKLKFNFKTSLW

| SMILES | IC50 [1] [µM] | IC50 [2] [µM] | IC50 [3] [µM] | inhibition at 25 µM [4] [%] | CI [5] | IC50 [6] [µM] | IC50 [7] [µM] | inhibition at 25 µM [8] [%] | IC50 [9] [µM] | inhibition at 17.5 µM [10] [%] | CI [11] | inhibition at 17.5 µM [12] [%] | CI [13] | inhibition at 10 µM [14] [%] | inhibition at 10 µM [15] [%] | inhibition [16] | inhibition [17] | inhibition [18] | inhibition [19] [%] |
| --- | --- | --- | --- | --- | --- | --- | --- | --- | --- | --- | --- | --- | --- | --- | --- | --- | --- | --- | --- |
| CCCN(CCC)c1ncc2c(n1)CCN(C(=O)c1cc(Cc3n[nH]c(=O)c4ccccc34)ccc1F)C2 | 92.9 | > 200 | > 200 | 36.6 | 0.36 | 126 | 20.3 | 11.9 | – | – | – | – | – | – | – | – | – | – | – |
| O=C(c1cc(Cc2n[nH]c(=O)c3ccccc23)ccc1F)N1CCN(C(=O)C2CC2)CC1 [OLAPARIB] | – | – | > 200 | 27.9 | 0.88 | 409 | > 200 | 23.5 | 200 | – | – | – | – | – | – | – | – | – | – |
| O=C(c1cc(Cc2n[nH]c(=O)c3ccccc23)ccc1F)N1CCc2nc(N3CCCCC3)ncc2C1 | 22.7 | 24.5 | > 200 | – | – | 89.8 | > 200 | – | – | 43 | 0.44 | 18.9 | – | – | – | – | – | – | – |
| CCN(CC)c1ncc2c(n1)CCN(C(=O)c1cc(Cc3n[nH]c(=O)c4ccccc34)ccc1F)C2 | 28.4 | > 200 | > 200 | – | – | 55.8 | 66.8 | – | – | – | – | – | 0.82 | 37.5 | 21.6 | – | – | – | – |
| O=C(c1cc(Cc2n[nH]c(=O)c3ccccc23)ccc1F)N1CCc2nc(N3CCCC3)ncc2C1 | 77 | > 200 | > 200 | 40.9 | 0.61 | 144 | 7.81 | 24.9 | – | – | – | – | – | – | – | – | – | – | – |
| CN1CCN(c2ncc3c(n2)CCN(C(=O)c2cc(Cc4n[nH]c(=O)c5ccccc45)ccc2F)C3)CC1 | 46.3 | 95.7 | > 200 | 55.8 | 0.67 | 72.8 | 53.4 | 37.4 | – | – | – | – | – | – | – | – | – | – | – |
| CN(C)CCN(C)c1ncc2c(n1)CCN(C(=O)c1cc(Cc3n[nH]c(=O)c4ccccc34)ccc1F)C2 | 66.9 | > 200 | > 200 | 43.9 | 0.86 | 122 | > 200 | 24.6 | – | – | – | – | – | – | – | – | – | – | – |
| O=C(c1cc(Cc2n[nH]c(=O)c3ccccc23)ccc1F)N1CCc2nc(N3CCOCC3)ncc2C1 | 18.7 | 50 | > 200 | 47.8 | 0.39 | 199 | 3.23 | 18.6 | 15.6 | – | – | – | – | – | – | Active | Active | Active | 92.1 |
| CCN1CCN(c2ncc3c(n2)CCN(C(=O)c2cc(Cc4n[nH]c(=O)c5ccccc45)ccc2F)C3)CC1 | 88.8 | > 200 | > 200 | 45.7 | 0.2 | 90.1 | 137 | 9.13 | – | – | – | – | – | – | – | – | – | – | – |
| CCCCN(CCCC)c1ncc2c(n1)CCN(C(=O)c1cc(Cc3n[nH]c(=O)c4ccccc34)ccc1F)C2 | 13.3 | 21.2 | > 200 | 39.6 | 0.79 | 106 | > 200 | 27.4 | – | – | – | – | – | – | – | – | – | – | – |
